The structures appear in SMILES notation. Counter-ions that a name gives are not always drawn.

Chain of human κ opioid receptor (P41145 whole entry): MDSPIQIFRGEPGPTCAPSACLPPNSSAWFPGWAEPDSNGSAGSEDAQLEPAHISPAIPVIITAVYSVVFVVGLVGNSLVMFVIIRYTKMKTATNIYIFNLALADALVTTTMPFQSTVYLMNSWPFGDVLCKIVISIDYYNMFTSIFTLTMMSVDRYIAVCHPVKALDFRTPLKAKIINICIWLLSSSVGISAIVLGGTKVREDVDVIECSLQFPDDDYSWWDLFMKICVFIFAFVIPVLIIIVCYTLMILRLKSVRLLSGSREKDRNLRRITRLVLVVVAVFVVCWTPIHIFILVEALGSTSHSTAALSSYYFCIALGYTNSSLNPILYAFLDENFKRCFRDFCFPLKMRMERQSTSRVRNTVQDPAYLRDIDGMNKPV

In one assay the target is human κ opioid receptor (Homo sapiens, UniProt P41145). Put plainly: κ opioid receptor agonist activity test in GTP binding activity measurement system ([35S]GTPγS binding). Type of assay: biochemical. To be noted: test compound concentration 10^−9 M; binding of 10^−6 M (−)-U50488 = 100%; human κ opioid receptor membrane preparation; average of duplicate. The procedure:
1. κ Opioid Receptor Agonist Activity Tests in GTP Binding Activity Measurement System
Jinmin Zhu et al. reported a method of evaluating agonist activities of drugs on a κ opioid receptor wherein guanosine 5′-triphosphate (GTP) radiolabelled with a human κ opioid receptor is used in J. Pharmaco. Exp. Ter., 282, 676–684 (1997). κ opioid receptor agonist activities (actions) of test compounds were evaluated according to the method described in the above-mentioned literature.
N-2-Hydroxyethylpiperazine-N′-2-ethanesulfonic acid (HEPES, 4.77 g), magnesium chloride hexahydrate (2.03 g), sodium chloride (5.84 g), disodium […] (EDTA•2Na, 0.37 g), DL-dithiothreitol (DTT, 0.15 g) and bovine serum albumin (BSA, 1.0 g) were dissolved in ultrapure water, pH was adjusted to 7.4 with sodium hydroxide, and further ultrapure water was added to the mixture so that a total amount was one liter to prepare a incubation buffer.
Nine volume of the incubation buffer was added to one volume of dimethyl sulfoxide (DMSO) to prepare a 10% DMSO-incubation buffer.
Tris(hydroxymethyl)aminomethane hydrochloride (TRIZA-HCl, 66.1 g) and Tris(hydroxymethyl)aminomethane (TRIZA-Base, 9.7 g) were dissolved in ultrapure water so that a total amount was 10 liters to prepare a 50 mM Tris-hydrochloric acid buffer (pH 7.4).
A human κ opioid receptor membrane preparation (100 unit/ml) was diluted 60 times with the incubation buffer under ice-cold to prepare a human κ opioid receptor membrane preparation solution. The membrane preparation solution was preserved under ice-cold.
A test compound was dissolved in 100% DMSO to prepare a 10^−3 M test compound solution, and then the incubation buffer was added to the 10^−3 M test compound solution to prepare a 10^−4 M test compound solution. Next, the 10% dimethyl sulfoxide-incubation buffer was added to the 10^−4 M test compound solution to prepare a 10^−5 M, 10^−6 M, 10^−7 M, 10^−8 M or 10^−9 M test compound solution.
A drug (−)-U50488 (J. Pharmacol. Exp. Ther., 224, 7–12 (1983)), which is known as a κ opioid receptor agonist, was used as a positive control drug in the tests.
(−)-U-50488 was dissolved in 100% DMSO to prepare a 10^−3 M positive control drug solution, and then the incubation buffer was added to the 10^−3 M positive control drug solution to prepare a 10^−4 M positive control drug solution. Next, the 10% DMSO-incubation buffer was added to the 10^−4 M positive control drug solution to prepare a 10^−6 M positive control drug solution.
GDP was dissolved in ultrapure water to prepare a 10^−3 M GDP solution, and the incubation buffer was added to the 10^−3 M GDP solution to prepare a 10^−5 M GDP solution.
10^−3 M [^35S]GTPγS was diluted with the incubation buffer to prepare 10^−9 M radiolabelled reagent.
• 1. The incubation buffer (50 μl), the 10^−5 M GDP solution (50 μl), the human κ opioid receptor membrane preparation solution (300 μl), the test compound solution and the 10^−9 M radiolabelled reagent (50 μl) were put into a glass tube, and then the mixture was incubated at 30° C. for 60 minutes. • 2. The 50 mM Tris-hydrochloric acid buffer (pH 7.4) was added to the mixture to stop the reaction, the reaction mixture was suction-filtered with a GF/B filter, and then the residue on the GF/B filter was washed with the 50 mM Tris-hydrochloric acid buffer (3 ml) three times. • 3. The GF/B filter was air-dried, and then the residue on the GF/B filter was taken out with an antomatic dispenser and transfered into a vial. • 4. Scintisol EX-H (5 ml) was introduced into the vial to prepare a sample solution, and then radioactivity in the sample solution was measured with a liquid scintillation counter for one minute. The radioactivity was expressed in “cpm” (counts per minute). Calculation Formula of κ Opioid Receptor Agonist Activity
Each agonist activity of the test compound on the κ opioid receptor was expressed in [^35S]GTPγS binding % when [^35S]GTPγS binding of 10^−6 M (−)-U50488 was 100%. […]
As for `COc1ccc(OCCCN(Cc2cccs2)C(C)C)c(C2Sc3cc(Cl)ccc3N2C(C)=O)c1` (single isomer, unassigned; (+)) [Compound No. 9-4, (+)-3-Acetyl-6-chloro-2-[2-(3-(N-isopropyl-N-(thiophen-2-ylmethyl)-amino)propoxy)-5-methoxyphenyl]benzothiazoline Hydrochloride], the “[^35S]GTP γ S binding %” value stood at 72.1%. Same read-out and setting: then `CCN(CCCOc1ccc(OC)cc1C1Sc2cc(Cl)ccc2N1C(C)=O)C(C)C` (single isomer, unassigned; (+)) [Compound No. 9-10, (+)-3-Acetyl-6-chloro-2-[2-(3-(N-ethyl-N-isopropylamino)propoxy)-5-methoxyphenyl]benzothiazoline Hydrochloride], with 116.8%.

Consider `COc1ccc(OCCCN(C(C)C)C(C)C)c(C2Sc3cc(Cl)ccc3N2C(C)=O)c1` (single isomer, unassigned; (+)) [Compound No. 9-11, (+)-3-Acetyl-6-chloro-2-[2-(3-(N,N-diisopropylamino)propoxy)-5-methoxyphenyl]benzothiazoline Hydrochloride], for which the “[^35S]GTP γ S binding %” value is given as 55.0%.

Regarding `COc1ccc(OCCCN(C)CCO)c(C2Sc3cc(Cl)ccc3N2C(C)=O)c1` (single isomer, unassigned; (+)) [Compound No. 9-16, (+)-3-Acetyl-6-chloro-2-[2-(3-(N-(2-hydroxyethyl)-N-methylamino)-propoxy)-5-methoxyphenyl]benzothiazoline Hydrochloride], the “[^35S]GTP γ S binding %” value worked out at 57.2%. Same read-out and setting: then `COc1ccc(OCCCN(CCO)C(C)C)c(C2Sc3ccccc3N2C(C)=O)c1` (single isomer, unassigned; (+)) [Compound No. 11-3, (+)-3-Acetyl-2-[2-(3-(N-(2-hydroxyethyl)-N-isopropylamino)-propoxy)-5-methoxyphenyl]benzothiazoline Hydrochloride], with 85.1%; and `COc1ccc(OCCCN(CCO)CC(C)C)c(C2Sc3cc(Cl)ccc3N2C(C)=O)c1` (stereo not shown) [Compound No. 3-11, 3-Acetyl-6-chloro-2-[2-(3-(N-(2-hydroxyethyl)-N-(2-methylpropyl)-amino)propoxy)-5-methoxyphenyl]benzothiazoline Hydrochloride], with 53.7%.

As to `COc1ccc(OCCCN2CCC[C@H]2CO)c(C2Sc3cc(Cl)ccc3N2C(C)=O)c1` (stereo partly drawn) [Compound No. 3-12, 3-Acetyl-6-chloro-2-[2-(3-((2S)-2-hydroxymethylazolan-1-yl)propoxy)-5-methoxyphenyl]benzothiazoline Hydrochloride], the “[^35S]GTP γ S binding %” value was determined as 75.6%. On the same count and under the same terms, then `COc1ccc(OCCCN2CC[C@H](O)C2)c(C2Sc3cc(Cl)ccc3N2C(C)=O)c1` (stereo partly drawn) [Compound No. 3-14, 3-Acetyl-6-chloro-2-[2-(3-((3S)-hydroxyazolan-1-yl)propoxy)-5-methoxyphenyl]benzothiazoline Hydrochloride], with 59.8%; and `COc1ccc(OCCCN(CCO)C(C)C)c(C2Sc3ccc(C(F)(F)F)cc3N2C(C)=O)c1` (stereo not shown) [Compound No. 4-2, 3-Acetyl-2-[2-(3-(N-(2-hydroxyethyl)-N-isopropylamino)propoxy)-5-methoxyphenyl]-5-trifluoromethylbenzothiazoline Hydrochloride], with 65.1%.

Still in this assay, the particulars now being: test compound concentration 10^−9 M; binding of 10^−6 M (−)-U50488 = 100%; human κ opioid receptor membrane preparation; average of duplicate; Hydrochloride.
`COCCN(CCCOc1ccc(OC)cc1C1Sc2cc(Cl)ccc2N1C(C)=O)C(C)C.Cl` (single isomer, unassigned; (+)) [Compound No. 9-1, (+)-3-Acetyl-6-chloro-2-[2-(3-(N-isopropyl-N-(2-methoxyethyl)amino)-propoxy)-5-methoxyphenyl]benzothiazoline Hydrochloride]: the “[^35S]GTP γ S binding %” value is 93.2%. Consider `COc1ccc(OCCCN(CCO)C(C)C)c(C2Sc3cc(Cl)ccc3N2C(C)=O)c1` (single isomer, unassigned; (+)) [Compound No. 9-2, (+)-3-Acetyl-6-chloro-2-[2-(3-(N-(2-hydroxyethyl)-N-isopropylamino)-propoxy)-5-methoxyphenyl]benzothiazoline Hydrochloride], for which the “[^35S]GTP γ S binding %” value came out at 103.9%.

In the case of `COc1ccc(OCCCN(Cc2ccco2)C(C)C)c(C2Sc3cc(Cl)ccc3N2C(C)=O)c1` (single isomer, unassigned; (+)) [Compound No. 9-5, (+)-3-Acetyl-6-chloro-2-[2-(3-(N-(furan-2-ylmethyl)-N-isopropylamino)propoxy)-5-methoxyphenyl]benzothiazoline Hydrochloride], the “[^35S]GTP γ S binding %” value was found to be 132.5%. Still for that read-out and setting: then `COCCN(CCCOc1ccc(OC)cc1C1Sc2cc(Cl)ccc2N1C(C)=O)C(C)C.Cl` (single isomer, unassigned; (-)) [Compound No. 10-1, (−)-3-Acetyl-6-chloro-2-[2-(3-(N-isopropyl-N-(2-methoxyethyl)amino)-propoxy)-5-methoxyphenyl]benzothiazoline Hydrochloride], with 50.5%; and `COc1ccc(OCCCN(CCO)C(C)C)c(C2Sc3cc(Cl)ccc3N2C(C)=O)c1` (single isomer, unassigned; (-)) [Compound No. 10-2, (−)-3-Acetyl-6-chloro-2-[2-(3-(N-(2-hydroxyethyl)-N-isopropylamino)-propoxy)-5-methoxyphenyl]benzothiazoline Hydrochloride], with 65.8%. The same measure, in the same setting: then `CCOCCN(CCCOc1ccc(OC)cc1C1Sc2cc(Cl)ccc2N1C(C)=O)C(C)C` (single isomer, unassigned; (-)) [Compound No. 10-3, (−)-3-Acetyl-6-chloro-2-[2-(3-(N-(2-ethoxyethyl)-N-isopropylamino)-propoxy)-5-methoxyphenyl]benzothiazoline Hydrochloride], with 55.7%; and `COc1ccc(OCCCN(Cc2ccco2)C(C)C)c(C2Sc3cc(Cl)ccc3N2C(C)=O)c1` (stereo not shown) [Compound No. 3-38, 3-Acetyl-6-chloro-2-[2-(3-(N-(furan-2-ylmethyl)-N-isopropylamino)-propoxy)-5-methoxyphenyl]benzothiazoline Hydrochloride], with 58.4%.

The same assay, now with this note: test compound concentration 10^−9 M; binding of 10^−6 M (−)-U50488 = 100%; human κ opioid receptor membrane preparation; average of duplicate; read-out: [^35S]GTP γ S binding %.
Turning to `COCCN(CCCOc1ccc(OC)cc1C1Sc2ccccc2N1C(C)=O)C(C)C` (stereo not shown) [Compound No. 8-1, 3-Acetyl-2-[2-(3-(N-isopropyl-N-(2-methoxyethyl)amino)propoxy)-5-methoxyphenyl]benzothiazoline Hydrochloride], the activation at 0.001 µM is 103%.

A further assay concerns mouse acetic acid writhing. Put plainly: Antinociceptive action test by mouse acetic acid writhing method. It is filed as in vivo. As to conditions: 30 mg/kg oral, 20 min before 0.7% acetic acid i.p., writhing counted 10 to 20 minutes after acetic acid, vs vehicle group, average of seven samples, Hydrochloride, 30 mg/kg. The method, then:
2. Antinociceptive Action Tests by Mouse Acetic Acid Writhing Method
Accordingly, antinociceptive action tests of test compounds were carried out using the mouse acetic acid writhing method, and analgesic effects of the test compounds were evaluated.
Twenty minutes after oral administration of the test compound (30 mg/kg), the 0.7% acetic acid solution was administered intraperitoneally in a rate of 0.1 ml per 10 g of mouse weight.
Inhibition rates were calculated according to the following equation.
The antinociceptive action of the test compound was expressed in an inhibition rate to writhing numbers of a vehicle group.
In the case of `COc1ccc(OCCCN(CCO)C(C)C)c(C2Sc3cc(Cl)ccc3N2C(C)=O)c1` (single isomer, unassigned; (+)) [Compound No. 9-2, (+)-3-Acetyl-6-chloro-2-[2-(3-(N-(2-hydroxyethyl)-N-isopropylamino)-propoxy)-5-methoxyphenyl]benzothiazoline Hydrochloride], the “Inhibition rate (%)” value was found to be 81.2%.

The assay is the same for the next values; noted with them: 30 mg/kg oral, 20 min before 0.7% acetic acid i.p., writhing counted 10 to 20 minutes after acetic acid, vs vehicle group, average of seven samples, read-out: Inhibition rate (%).
Take `COCCN(CCCOc1ccc(OC)cc1C1Sc2cc(Cl)ccc2N1C(C)=O)C(C)C.Cl` (single isomer, unassigned; (+)) [Compound No. 9-1, (+)-3-Acetyl-6-chloro-2-[2-(3-(N-isopropyl-N-(2-methoxyethyl)amino)-propoxy)-5-methoxyphenyl]benzothiazoline Hydrochloride]: the inhibition in vivo at 30 mg/kg was 97.7%.

The record behind these values is US7112598B2, “κ opioid receptor agonist comprising 2-phenylbenzothiazoline derivative” (Santen Pharmaceutical Co., Ltd., priority 2002, dated 2006).
